{"source": "paper PMC8744835", "about": "“Sterically Hindered Quaternary Phosphonium Salts (QPSs): Antimicrobial Activity and Hemolytic and Cytotoxic Properties” (International Journal of Molecular Sciences, 2021)", "key": {"[1]": {"test_system": "S. aureus", "assay": "Zone-of-inhibition test of coated PC+ plastic sample", "type": "cell-based, Staphylococcus aureus", "conditions": "PC+ sample immersed 1 min in 1% solution of 12a in ethanol, 37 °C 24 h", "description": "(§1) The inhibition-zone test is a quick and qualitative way to measure the ability of an antimicrobial agent to suppress microbial growth. The sensitivity of the method is quite high and even a small amount of residual biocide in a model system can be detected. […] In this experiment, we used cultures of the bacteria P. aeruginosa and S. aureus. First, the microbial suspension was spread on a sterile agar plate. Then, a plastic sample (PC+), which was preliminarily immersed for 1 min in a 1% solution of compound 12a in ethanol, was placed in the center of the Petri dish with agar. During the incubation period, the inoculum bacteria can only grow where is no antimicrobial agent. If the active agent is washed out of the sample into the environment (in this case, agar), bacterial growth in the area around the sample is suppressed. The width of this area is determined by the diffusion of the active compound in the vicinity. […] From the results obtained, it is clear that a relatively stable surface coating was achieved using a simple experimental procedure.\n(§2) This sample was tested for possible release of the active compound. Tests were performed on a culture of Gram-negative bacteria P. aeruginosa and Gram-positive bacteria S. aureus. […] Then, Petri dishes were placed in an incubator at 37 °C for 24 h, and the presence of inhibition zones was evaluated."}, "[2]": {"test_system": "Staphylococcus aureus ATCC 6538P FDA 209P", "assay": "Antimicrobial activity, serial dilution technique in Mueller–Hinton Broth 2", "type": "cell-based", "conditions": "Staphylococcus aureus, Sa, average of three ± SD, - means non-active", "summary_of_the_method": "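Using a broth serial dilution method in Mueller–Hinton Broth 2, S. aureus ATCC 6538P FDA 209P (3.0 × 10^5 cfu/mL) was exposed to compounds at 37 °C and observed daily over 5 days. MIC was the lowest concentration preventing growth; bacteriostatic absence of growth was also noted, with three replicate experiments.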"}, "[3]": {"test_system": "Escherichia coli ATCC 25922", "assay": "Antimicrobial activity, serial dilution technique in Mueller–Hinton Broth 2", "type": "cell-based", "conditions": "Escherichia coli, ATCC25922, Ec; average of three ± SD; - means non-active; read-out: Minimum Inhibitory Concentration (MIC), Ec", "summary_of_the_method": "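Growth inhibition is scored in Mueller–Hinton Broth 2 dilution series seeded with 3.0 × 10^5 cfu/mL and held at 37 °C for up to 5 days. Values reported are MICs, the lowest concentration without growth.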"}, "[4]": {"test_system": "Bacillus cereus ATCC 10702 NCTC 8035", "assay": "Antimicrobial activity, serial dilution technique in Mueller–Hinton Broth 2", "type": "cell-based", "conditions": "Bacillus cereus, Bc, average of three ± SD, - means non-active", "summary_of_the_method": "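Compounds were serially diluted in Mueller–Hinton Broth 2 and inoculated with the Gram-positive strain Bacillus cereus ATCC 10702 NCTC 8035 at 3.0 × 10^5 cfu/mL, then incubated at 37 °C. Observations were taken every 24 h over 5 days in three repeat experiments. The MIC was the lowest concentration that stopped growth, with bacteriostatic absence of growth also noted.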"}, "[5]": {"test_system": "P. aeruginosa", "assay": "Zone-of-inhibition test of coated PC+ plastic sample", "type": "cell-based, Pseudomonas aeruginosa", "conditions": "PC+ sample immersed 1 min in 1% solution of 12a in ethanol, 37 °C 24 h", "description": "as §1, §2"}, "[6]": {"test_system": "S. aureus 209 P", "assay": "Bactericidal properties of coated plastic samples", "type": "cell-based, Staphylococcus aureus", "conditions": "for CFU/cm^2, Nylon: Nylon plastic", "description": "The plastic samples, which were 10 mm × 10 mm × 2 mm, were preliminary sterilized and placed into an ethanolic solution of 12a for 1 min. Then, the studied and control (without coating) samples were immersed in bacterial suspensions with a known concentration of bacteria (10^5–10^8 bacteria/mL) for 24 h, and the number of viable micro-organisms was then estimated.\nThe plastic samples, which were 10 mm × 10 mm × 2 mm plates, were sterilized in a medical autoclave, HG-50 (Hirayama, Japan), at 121 °C for 20 min. Then, each sample was immersed in an ethanolic solution of compound 12a at concentrations of 0.01 and 0.001% for 1 min and air dried. After treatment, the plastic samples were placed in 24-well plates with 1 sample/well. Then, 1 mL of S. aureus 209 P suspension (10^5 bacteria/mL) was added to each well. The plastic control samples were not treated with compound 12a. The culture of Staphylococcus aureus 209 P was grown for a day at 37 °C in Mueller–Hinton Broth 2. Active daily growing cultures were diluted in physiological saline (NaCl 9.0 g/L) to a concentration of 10^5 bacteria/mL and then distributed into 25-well plates containing 1 cm^2 of coating/well, with the exception of an uncoated control well. After a 24-h incubation period at 37 °C, dilution series were performed for each treatment, and 100 μL volumes of 3 dilutions were plated on sterile Mueller–Hinton agar. After 24 h, the number of colonies on each plate was counted to obtain the corresponding concentration of live bacteria."}, "[7]": {"test_system": "methicillin-resistant S. aureus MRSA-1", "assay": "Antimicrobial activity, serial dilution technique in Mueller–Hinton Broth 2", "type": "cell-based, Staphylococcus aureus", "conditions": "- means non-active", "summary_of_the_method": "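Antimicrobial activity against methicillin-susceptible Staphylococcus aureus MRSA-1, a hospital isolate from a chronic tonsillitis patient that is resistant to fluoroquinolones and beta-lactams, was determined by serial dilution in Mueller–Hinton Broth 2. The bacterial load was 3.0 × 10^5 cfu/mL, incubation was at 37 °C, and growth was recorded every 24 h for 5 days.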"}, "[8]": {"test_system": "methicillin-resistant S. aureus MRSA-2", "assay": "Antimicrobial activity, serial dilution technique in Mueller–Hinton Broth 2", "type": "cell-based, Staphylococcus aureus", "conditions": "- means non-active", "summary_of_the_method": "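Antimicrobial activity against methicillin-susceptible Staphylococcus aureus MRSA-2, a beta-lactam-resistant clinical isolate from a sinusitis patient at the Republican Clinical Hospital (Kazan), was assessed by serial dilution in Mueller–Hinton Broth 2. The inoculum was 3.0 × 10^5 cfu/mL. Cultures were incubated at 37 °C and read every 24 h for 5 days, in three repeat experiments.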"}, "[9]": {"test_system": "Escherichia coli ATCC 25922", "assay": "Antimicrobial activity, serial dilution technique in Mueller–Hinton Broth 2", "type": "cell-based", "conditions": "Escherichia coli, ATCC25922, Ec; average of three ± SD; - means non-active; read-out: Minimum Bactericidal and Fungicidal Concentration (MBC, MFC), Ec"}}}
{"smiles": "CCCCCCCCCCCC[P+](C(C)(C)C)(C(C)(C)C)C(C)(C)C", "note": "[Compound 12a, tri-tert-butyl(n-dodecyl)phosphonium]", "values": [{"measurement": "zone of inhibition", "setting": "[1]", "result": "no zones of inhibition"}, {"measurement": "MBC", "setting": "[2]; read-out: Minimum Bactericidal and Fungicidal Concentration (MBC, MFC), Sa", "result": "0.5 ± 0.03", "unit": "µg/mL"}, {"measurement": "MIC", "setting": "[2]; read-out: Minimum Inhibitory Concentration (MIC), Sa", "result": "0.5 ± 0.03", "unit": "µg/mL"}, {"measurement": "MIC", "setting": "[3]", "result": "7.8 ± 0.6", "unit": "µg/mL"}, {"measurement": "MBC", "setting": "[4]; read-out: Minimum Bactericidal and Fungicidal Concentration (MBC, MFC), Bc", "result": "62.5 ± 5.3", "unit": "µg/mL"}, {"measurement": "MIC", "setting": "[4]; read-out: Minimum Inhibitory Concentration (MIC), Bc", "result": "1.9 ± 0.01", "unit": "µg/mL"}, {"measurement": "zone of inhibition", "setting": "[5]", "result": "no zones of inhibition"}, {"measurement": "bacterial growth on coated plastic", "setting": "[6]; 12a at a concentration of 0.01%, ABS, PLA natural and PETG plastics", "result": "complete absence of bacterial growth"}, {"measurement": "CFU/cm^2, ABS", "setting": "[6]; ABS plastic, 12a 0.001%, 24 h incubation with 10^5 S. aureus 209 P", "result": "2.5 × 10^3 CFU/cm^2"}, {"measurement": "CFU/cm^2, Nylon", "setting": "[6]; 12a 0.001%, 24 h incubation with 10^5 S. aureus 209 P", "result": "3.2 × 10^4 CFU/cm^2"}, {"measurement": "CFU/cm^2, Nylon", "setting": "[6]; 12a 0.01%, 24 h incubation with 10^5 S. aureus 209 P", "result": "2.0 × 10^2 CFU/cm^2"}, {"measurement": "CFU/cm^2, PC+", "setting": "[6]; PC+ plastic, 12a 0.001%, 24 h incubation with 10^5 S. aureus 209 P", "result": "1.2 × 10^4 CFU/cm^2"}, {"measurement": "CFU/cm^2, PETG", "setting": "[6]; PETG plastic, 12a 0.001%, 24 h incubation with 10^5 S. aureus 209 P", "result": "1.8 × 10^3 CFU/cm^2"}, {"measurement": "decrease of bacterial cell concentration compared to the control", "setting": "[6]; PETG, 12a 0.001%", "result": 27, "unit": "times"}, {"measurement": "CFU/cm^2, PLA Natural", "setting": "[6]; PLA Natural plastic, 12a 0.001%, 24 h incubation with 10^5 S. aureus 209 P", "result": "5.0 × 10^3 CFU/cm^2"}, {"measurement": "CFU/cm^2, PLA+", "setting": "[6]; PLA+ plastic, 12a 0.001%, 24 h incubation with 10^5 S. aureus 209 P", "result": "1.6 × 10^4 CFU/cm^2"}, {"measurement": "Minimum Inhibitory Concentration (MIC), MRSA-1", "setting": "[7]; MRSA-1 (resistant to fluoroquinolones and beta-lactams)", "result": "0.5 ± 0.03", "unit": "µg/mL"}, {"measurement": "MBC", "setting": "[7]; Staphylococcus aureus, MRSA, MRSA-1, read-out: Minimum Bactericidal and Fungicidal Concentration (MBC, MFC), MRSA-1", "result": "0.5 ± 0.04", "unit": "µg/mL"}, {"measurement": "Minimum Bactericidal and Fungicidal Concentration (MBC, MFC), MRSA-2", "setting": "[8]; MRSA-2", "result": "7.8 ± 0.6", "unit": "µg/mL"}, {"measurement": "MIC", "setting": "[8]; Staphylococcus aureus, MRSA, MRSA-2 (resistant to beta-lactams), read-out: Minimum Inhibitory Concentration (MIC), MRSA-2", "result": "0.5 ± 0.03", "unit": "µg/mL"}, {"measurement": "MBC", "setting": "[9]", "result": "7.8 ± 0.7", "unit": "µg/mL"}]}
